Results: article PMC4770234, “The conserved GTPase HflX is a ribosome splitting factor that binds to the E-site of the bacterial ribosome” (Nucleic Acids Research, 2016)

Legend:
[1] = biological target: T1, HflX (wild-type) (Escherichia coli, UniProt P25519); experiment: stopped-flow light scattering of […] ribosome splitting; type: biochemical; conditions: 1 uM HflX, 125 uM nucleotide, 0.15 uM 70S ribosomes, 5 mM Mg2+, 20 °C; compared with apo HflX; indirect functional read-out
T1 construct: full length, N-terminal His6-tag, pET28a
T1 sequence (P25519 whole entry): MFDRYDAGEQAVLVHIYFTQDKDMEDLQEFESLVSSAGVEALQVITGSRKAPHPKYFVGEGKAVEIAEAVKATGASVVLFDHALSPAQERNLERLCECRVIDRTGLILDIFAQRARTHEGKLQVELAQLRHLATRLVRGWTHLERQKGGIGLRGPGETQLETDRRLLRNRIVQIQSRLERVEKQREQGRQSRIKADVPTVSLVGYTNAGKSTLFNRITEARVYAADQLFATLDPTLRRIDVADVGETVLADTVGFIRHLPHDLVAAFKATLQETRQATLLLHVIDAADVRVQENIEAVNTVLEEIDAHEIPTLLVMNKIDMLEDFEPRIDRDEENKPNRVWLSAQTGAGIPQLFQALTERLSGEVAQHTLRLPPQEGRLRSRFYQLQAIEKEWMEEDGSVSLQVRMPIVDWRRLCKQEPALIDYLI

[2] = biological target: T2, HflX ΔL372 (Escherichia coli, UniProt P25519); experiment: [γ-32P]GTP hydrolysis, phosphate release, multiple turnover; type: biochemical; conditions: ribosome-stimulated GTPase; 1 uM HflX, 125 uM GTP, 1 uM ribosomes per methods; labelled compound
T2 construct: C-terminal truncation: codon Leu372 (elsewhere printed Lys372) replaced by amber stop; N-terminal His6-tag, pET28a
T2 sequence (P25519 1-371): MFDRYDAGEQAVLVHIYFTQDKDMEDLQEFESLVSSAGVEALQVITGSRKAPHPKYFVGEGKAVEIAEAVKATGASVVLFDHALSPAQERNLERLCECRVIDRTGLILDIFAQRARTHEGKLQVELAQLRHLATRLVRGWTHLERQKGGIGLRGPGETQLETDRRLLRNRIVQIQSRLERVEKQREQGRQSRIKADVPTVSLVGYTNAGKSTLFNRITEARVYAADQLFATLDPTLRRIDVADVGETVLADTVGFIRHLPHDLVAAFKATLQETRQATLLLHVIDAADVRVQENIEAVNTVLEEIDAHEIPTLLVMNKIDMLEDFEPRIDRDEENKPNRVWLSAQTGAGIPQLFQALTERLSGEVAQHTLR

Compound	stopped-flow light scattering of 70S ribosome splitting [1]	[γ-32P]GTP hydrolysis, phosphate release, multiple turnover [2]
Nc1nc2c(ncn2[C@@H]2O[C@H](COP(=O)(O)OP(=O)(O)NP(=O)(O)O)[C@@H](O)[C@H]2O)c(=O)[nH]1 [GDPNP]	HflX•GDPNP dissociated ribosomes to a greater extent than HflX•GDP	
Nc1nc2c(ncn2[C@@H]2O[C@H](COP(=O)(O)OP(=O)(O)OP(=O)(O)O)[C@@H](O)[C@H]2O)c(=O)[nH]1 [GTP]		we tested the ΔL372 truncation variant for GTP hydrolysis finding that it is still active
